Experimental data from patent publication US20250243210A1, “CRBN E3 LIGASE LIGAND COMPOUND, PROTEIN DEGRADER DEVELOPED BASED THEREON AND THEIR APPLICATIONS” (GLUETACS THERAPEUTICS (SHANGHAI) CO., LTD., priority 2021, published 2025).

Key:
Daudi = assay: CCK-8 tumor cell proliferation, Daudi; type: cell-based; conditions: Homo sapiens, 96 h, read-out: IC50 for inhibiting the proliferation of tumor cells, Daudi
Method: (§1) Determination of half inhibitory concentration (IC50) of the compounds against tumor cells:
(§2) The tumor cells used herein were cultured in a cell culture medium listed in table 6 at 37° C. in an incubator with 5% CO2.
(§3) After the cells were treated with the compounds of the present disclosure for a period of time (the treatment times listed in Table 7), the cell viability detection reagent was added to the culture medium for cell viability assessment according to the instructions provided with the CCK-8 kit. […] The growth inhibition of the compounds of the present disclosure on cells was plotted by Prism Graphpad software, and the IC50 values of the compounds of the present disclosure were calculated therefrom.

Kasumi-1 = assay: CCK-8 tumor cell proliferation, Kasumi-1; type: cell-based; conditions: Homo sapiens, Kasumi-1, 72 h, read-out: IC50 for inhibiting the proliferation of tumor cells, Kasumi-1
Method: as §1, §2, §3

SU-DHL-6 = assay: CCK-8 tumor cell proliferation, SU-DHL-6; type: cell-based; conditions: Homo sapiens, SU-DHL-6, 72 h, read-out: IC50 for inhibiting the proliferation of tumor cells, SU-DHL-6
Method: as §1, §2, §3

TMD8 = assay: CCK-8 tumor cell proliferation, TMD8; type: cell-based; conditions: Homo sapiens, TMD8, 72 h, read-out: IC50 for inhibiting the proliferation of tumor cells, TMD8
Method: as §1, §2, §3

LNcap = assay: CCK-8 tumor cell proliferation, LNcap; type: cell-based, Human; conditions: 96 h, read-out: IC50 for inhibiting the proliferation of tumor cells, LNcap
How it was run: (§4)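 Cells were seeded in 96-well plates and treated 24 h later with compounds at 10 concentrations, top 10 μM, 5-fold serial dilutions. Viability after the set treatment time was read with a CCK-8 kit, and IC50 was calculated from growth-inhibition curves.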

DU-145 = assay: CCK-8 tumor cell proliferation, DU-145; type: cell-based, Human; conditions: DU-145, 96 h, read-out: IC50 for inhibiting the proliferation of tumor cells, DU-145
How it was run: (§5)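 Cells grown at 37° C with 5% CO2, treated with compound for line-specific times, then viability read with CCK-8. IC50 derived from plotted growth inhibition curves.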

MM.1R = assay: CCK-8 tumor cell proliferation, MM.1R; type: cell-based; conditions: 72 h, read-out: IC50 for inhibiting the proliferation of tumor cells, MM.1R
Method: as §1, §2, §3

MGC80-3 = assay: CCK-8 tumor cell proliferation, MGC80-3; type: cell-based, Human; conditions: MGC80-3, 96 h, read-out: IC50 for inhibiting the proliferation of tumor cells, MGC80-3
How it was run: as §4

CCRF-CEM = assay: CCK-8 tumor cell proliferation, CCRF-CEM; type: cell-based, Human; conditions: 96 h, read-out: IC50 for inhibiting the proliferation of tumor cells, CCRF-CEM
Method: as §1, §2, §3

Hep3B2.1-7 = assay: CCK-8 tumor cell proliferation, Hep3B2.1-7; type: cell-based, Human; conditions: Hep3B2.1-7, 96 h, read-out: IC50 for inhibiting the proliferation of tumor cells, Hep3B2.1-7
How it was run: as §4

WSU-DLCL2 = assay: CCK-8 tumor cell proliferation, WSU-DLCL2; type: cell-based, Human; conditions: WSU-DLCL2, 96 h, read-out: IC50 for inhibiting the proliferation of tumor cells, WSU-DLCL2
How it was run: as §5

A549 = assay: CCK-8 tumor cell proliferation, A549; type: cell-based, Human; conditions: A549, 96 h, read-out: IC50 for inhibiting the proliferation of tumor cells, A549
Method: as §1
The tumor cells used herein were cultured in a cell culture medium listed in table 6 at 37° C. in an incubator with 5% CO2. Prior to experimentation, all cells used were correctly identified by STR profiling, and tested negative for mycoplasma through routine screenings.
IC50 values of the compounds of the present disclosure (including the compounds in Table 4 and compounds of examples 1-72) were measured using the Meilun Cell Counting Kit-S kit from Dalian Meilun Biotech Co., Ltd. Assay details are as follows: tumor cells were seeded in a 96-well plate at a density listed in Table 7. After 24 h, 100 μL of the inoculated cells were treated with 0.5 μL of the compounds of the present disclosure (including the compounds in Table 4 and compounds of examples 1-72) at 10 different successively decreasing concentrations (starting at the highest concentration of 10 μM; 5-fold serial dilutions). After the cells were treated with the compounds of the present disclosure for a period of time (the treatment times listed in Table 7), the cell viability detection reagent was added to the culture medium for cell viability assessment according to the instructions provided with the CCK-8 kit. […] The growth inhibition of the compounds of the present disclosure on cells was plotted by Prism Graphpad software, and the IC50 values of the compounds of the present disclosure were calculated therefrom.

| Compound | IC50 (Daudi) [nM] | IC50 (Kasumi-1) [nM] | IC50 (SU-DHL-6) [nM] | IC50 (TMD8) [nM] | IC50 (LNcap) [nM] | IC50 (DU-145) [nM] | IC50 (MM.1R) [nM] | IC50 (MGC80-3) [nM] | IC50 (CCRF-CEM) [nM] | IC50 (Hep3B2.1-7) [nM] | IC50 (WSU-DLCL2) [nM] | IC50 (A549) [nM] |
| --- | --- | --- | --- | --- | --- | --- | --- | --- | --- | --- | --- | --- |
| Cc1nc(Nc2ncc(C(=O)Nc3c(C)cccc3Cl)s2)cc(N2CCN(CCO)CC2)n1 [Dasatinib, reference compound] | 100 to 500 | ≤ 50 | ≤ 50 | ≤ 50 | – | – | – | – | – | – | – | – |
| N#Cc1ccc(OC2CCC(NC(=O)c3ccc(N4C5CCC4CN(CC4CCN(c6cc7c(cc6F)C(=O)N(C6CCC(=O)NC6=O)C7=O)CC4)C5)nn3)CC2)cc1Cl (stereo not drawn) [GT-03449, N-((1r,4r)-4-(3-chloro-4-cyanophenoxy)cyclohexyl)-6-(3-((1-(2-(2,6-dioxopiperidin-3-yl)-6-fluoro-1,3-dioxoisoindolin-5-yl)piperidin-4-yl)methyl)-3,8-diazabicyclo[3.2.1]octan-8-yl)pyridazine-3-carboxamide] | – | – | – | – | 50 to 100 | 500 to 1000 | 100 to 500 | 50 to 100 | 100 to 500 | 50 to 100 | – | – |
| N#Cc1ccc(OC2CCC(NC(=O)c3ccc(N4CCC(CN5CC6CC(C5)N6c5cc6c(cc5F)C(=O)N(C5CCC(=O)NC5=O)C6=O)CC4)nn3)CC2)cc1Cl (stereo not drawn) [GT-03486, N-((1r,4r)-4-(3-chloro-4-cyanophenoxy)cyclohexyl)-6-(4-((6-(2-(2,6-dioxopiperidin-3-yl)-6-fluoro-1,3-dioxoisoindolin-5-yl)-3,6-diazabicyclo[3.1.1]heptan-3-yl)methyl)piperidin-1-yl)pyridazine-3-carboxamide] | – | – | – | – | 100 to 500 | – | 100 to 500 | 50 to 100 | 100 to 500 | – | 100 to 500 | 100 to 500 |
| Cc1nc(Nc2ncc(C(=O)Nc3c(C)cccc3Cl)s2)cc(N2CCC(CN3C4CCC3CN(c3cc5c(cc3F)C(=O)N(C3CCC(=O)NC3=O)C5=O)C4)CC2)n1 (stereo not drawn) [GT-03537, N-(2-chloro-6-methylphenyl)-2-((6-(4-((3-(2-(2,6-dioxopiperidin-3-yl)-6-fluoro-1,3-dioxoisoindolin-5-yl)-3,8-diazabicyclo[3.2.1]octan-8-yl)methyl)piperidin-1-yl)-2-methylpyrimidin-4-yl)amino)thiazole-5-carboxamide] | 100 to 500 | 50 to 100 | ≤ 50 | ≤ 50 | – | – | – | – | – | – | – | – |
| Cc1nc(Nc2ncc(C(=O)Nc3c(C)cccc3Cl)s2)cc(N2CCC(CN3C4CC3CN(c3cc5c(cc3F)C(=O)N(C3CCC(=O)NC3=O)C5=O)C4)CC2)n1 (stereo not drawn) [GT-03538, N-(2-chloro-6-methylphenyl)-2-((6-(4-((3-(2-(2,6-dioxopiperidin-3-yl)-6-fluoro-1,3-dioxoisoindolin-5-yl)-3,6-diazabicyclo[3.1.1]heptan-6-yl)methyl)piperidin-1-yl)-2-methylpyrimidin-4-yl)amino)thiazole-5-carboxamide] | 100 to 500 | 100 to 500 | ≤ 50 | ≤ 50 | – | – | – | – | – | – | – | – |
| Cc1nc(Nc2ncc(C(=O)Nc3c(C)cccc3Cl)s2)cc(N2CCC(CN3C4CC3CN(c3ccc5c(c3)C(=O)N(C3CCC(=O)NC3=O)C5=O)C4)CC2)n1 (stereo not drawn) [GT-03631, N-(2-chloro-6-methylphenyl)-2-((6-(4-((3-(2-(2,6-dioxopiperidin-3-yl)-1,3-dioxoisoindolin-5-yl)-3,6-diazabicyclo[3.1.1]heptan-6-yl)methyl)piperidin-1-yl)-2-methylpyrimidin-4-yl)amino)thiazole-5-carboxamide] | 100 to 500 | 100 to 500 | ≤ 50 | – | – | – | – | – | – | – | – | – |
| Cc1nc(Nc2ncc(C(=O)Nc3c(C)cccc3Cl)s2)cc(N2CCC(CN3C4CCC3CN(c3ccc5c(c3)C(=O)N(C3CCC(=O)NC3=O)C5=O)C4)CC2)n1 (stereo not drawn) [GT-03632, N-(2-chloro-6-methylphenyl)-2-((6-(4-((3-(2-(2,6-dioxopiperidin-3-yl)-1,3-dioxoisoindolin-5-yl)-3,8-diazabicyclo[3.2.1]octan-8-yl)methyl)piperidin-1-yl)-2-methylpyrimidin-4-yl)amino)thiazole-5-carboxamide] | 50 to 100 | ≤ 50 | ≤ 50 | – | – | – | – | – | – | – | – | – |
